Assay results from US8022206B2 (OSI Pharmaceuticals, LLC, priority 2008, dated 2011).
pIC50: −log10 of the molar value.

Experiments:
RON (human) = RON (human) (Homo sapiens, UniProt Q04912); assay: RON (human) AlphaScreen kinase assay, Km of ATP; assay type: biochemical; details: AlphaScreen, Km of ATP; read-out: RON biochemical IC50
In short: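 Detection used PT66 AlphaScreen beads added in Tris pH 7.5/NaCl/EDTA/BSA buffer, read after 1 h incubation. Vehicle-only DMSO wells served as controls.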

MET (human) = MET (human) (Homo sapiens, UniProt P08581); assay: MET (human) AlphaScreen kinase assay, Km of ATP; assay type: biochemical; details: AlphaScreen, Km of ATP; read-out: Met biochemical IC50
In short: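 Human MET at lot-optimised concentration in 50 mM Tris pH 7.4 buffer with 1 mM DTT, compound at 1% DMSO final; enzyme starts the reaction, 60 min at RT.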

Sequence of RON (human) (Q04912 25-1400): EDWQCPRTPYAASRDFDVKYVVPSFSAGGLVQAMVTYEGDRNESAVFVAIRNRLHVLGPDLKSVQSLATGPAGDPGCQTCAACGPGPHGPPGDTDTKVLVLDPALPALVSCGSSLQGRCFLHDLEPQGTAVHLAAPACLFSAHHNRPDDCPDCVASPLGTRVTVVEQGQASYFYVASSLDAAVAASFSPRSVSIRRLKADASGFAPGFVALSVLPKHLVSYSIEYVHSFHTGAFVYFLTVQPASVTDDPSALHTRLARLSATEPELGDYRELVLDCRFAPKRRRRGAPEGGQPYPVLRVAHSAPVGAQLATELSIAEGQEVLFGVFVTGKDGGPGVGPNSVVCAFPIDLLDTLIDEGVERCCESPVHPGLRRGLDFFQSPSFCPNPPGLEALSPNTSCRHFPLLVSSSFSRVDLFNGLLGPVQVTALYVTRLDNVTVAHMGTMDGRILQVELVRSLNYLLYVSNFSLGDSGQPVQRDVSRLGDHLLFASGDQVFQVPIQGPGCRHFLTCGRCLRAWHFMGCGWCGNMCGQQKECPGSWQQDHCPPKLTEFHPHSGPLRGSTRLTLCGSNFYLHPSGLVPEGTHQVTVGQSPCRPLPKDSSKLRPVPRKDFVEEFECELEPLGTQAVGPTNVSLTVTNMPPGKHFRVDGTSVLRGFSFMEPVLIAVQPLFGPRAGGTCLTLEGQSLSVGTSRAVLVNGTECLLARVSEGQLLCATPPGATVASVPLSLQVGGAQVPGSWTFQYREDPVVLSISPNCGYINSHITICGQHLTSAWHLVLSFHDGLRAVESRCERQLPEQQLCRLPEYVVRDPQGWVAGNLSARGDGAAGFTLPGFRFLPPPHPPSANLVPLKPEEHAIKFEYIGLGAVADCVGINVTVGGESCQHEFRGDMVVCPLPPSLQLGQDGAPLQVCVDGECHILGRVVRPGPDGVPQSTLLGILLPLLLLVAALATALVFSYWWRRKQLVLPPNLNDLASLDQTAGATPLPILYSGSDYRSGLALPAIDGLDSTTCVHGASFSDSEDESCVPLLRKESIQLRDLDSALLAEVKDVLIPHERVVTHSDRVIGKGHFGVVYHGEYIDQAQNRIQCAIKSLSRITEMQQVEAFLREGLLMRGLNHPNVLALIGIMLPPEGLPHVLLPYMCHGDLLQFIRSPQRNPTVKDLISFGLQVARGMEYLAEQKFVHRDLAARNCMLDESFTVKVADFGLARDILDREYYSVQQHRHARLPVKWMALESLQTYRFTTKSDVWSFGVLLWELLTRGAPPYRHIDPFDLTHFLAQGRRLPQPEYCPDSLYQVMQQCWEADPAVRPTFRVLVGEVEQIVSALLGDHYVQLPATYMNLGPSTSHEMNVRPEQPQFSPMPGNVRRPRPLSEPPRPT
Sequence of MET (human) (P08581 25-1390): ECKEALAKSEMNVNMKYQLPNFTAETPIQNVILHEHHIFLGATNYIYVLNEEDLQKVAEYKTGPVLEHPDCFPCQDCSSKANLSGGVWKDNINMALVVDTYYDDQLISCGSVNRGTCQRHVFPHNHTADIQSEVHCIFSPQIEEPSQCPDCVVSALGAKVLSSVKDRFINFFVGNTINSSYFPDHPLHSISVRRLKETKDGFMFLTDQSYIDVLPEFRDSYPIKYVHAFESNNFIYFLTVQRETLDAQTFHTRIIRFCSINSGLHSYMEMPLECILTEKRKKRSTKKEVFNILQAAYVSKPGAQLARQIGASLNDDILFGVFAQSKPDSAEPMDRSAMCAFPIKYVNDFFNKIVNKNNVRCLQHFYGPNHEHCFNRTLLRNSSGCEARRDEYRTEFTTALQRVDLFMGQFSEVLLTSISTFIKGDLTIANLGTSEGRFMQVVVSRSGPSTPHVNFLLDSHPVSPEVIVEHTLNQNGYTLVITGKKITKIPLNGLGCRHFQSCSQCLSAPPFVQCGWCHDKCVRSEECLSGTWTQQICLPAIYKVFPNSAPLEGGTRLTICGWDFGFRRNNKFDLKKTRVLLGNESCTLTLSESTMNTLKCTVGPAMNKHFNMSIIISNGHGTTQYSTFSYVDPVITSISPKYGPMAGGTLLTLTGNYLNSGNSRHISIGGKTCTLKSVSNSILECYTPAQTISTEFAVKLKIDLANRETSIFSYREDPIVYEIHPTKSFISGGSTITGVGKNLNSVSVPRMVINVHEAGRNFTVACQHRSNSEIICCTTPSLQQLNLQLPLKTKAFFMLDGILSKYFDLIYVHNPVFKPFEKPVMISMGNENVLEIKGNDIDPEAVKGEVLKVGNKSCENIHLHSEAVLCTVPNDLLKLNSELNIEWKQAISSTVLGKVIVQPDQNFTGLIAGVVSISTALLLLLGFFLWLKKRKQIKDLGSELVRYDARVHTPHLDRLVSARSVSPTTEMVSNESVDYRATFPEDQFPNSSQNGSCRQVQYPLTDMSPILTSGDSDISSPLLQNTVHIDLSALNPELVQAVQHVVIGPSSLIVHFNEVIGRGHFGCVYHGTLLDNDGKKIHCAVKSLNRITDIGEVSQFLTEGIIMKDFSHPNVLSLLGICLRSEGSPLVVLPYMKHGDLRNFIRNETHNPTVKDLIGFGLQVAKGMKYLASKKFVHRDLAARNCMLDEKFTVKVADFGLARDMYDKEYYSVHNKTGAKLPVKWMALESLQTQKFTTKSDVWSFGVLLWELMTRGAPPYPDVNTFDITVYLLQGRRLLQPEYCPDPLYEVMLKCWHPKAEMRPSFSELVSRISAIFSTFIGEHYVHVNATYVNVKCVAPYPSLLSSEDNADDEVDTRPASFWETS

Compound	pIC50 (RON (human))	pIC50 (MET (human))
C[C@@H](Oc1c(N)ncc2c(-c3cnn(C)c3)coc12)c1c(Cl)ccc(F)c1Cl [Example 4, 7-[(R)-1-(2,6-Dichloro-3-fluorophenyl)-ethoxy]-3-(1-methyl-1H-pyrazol-4-yl)-furo[3,2-c]pyridin-6-ylamine]	5.30 to 6.30	5.30 to 6.30
CC(Oc1c(N)ncc2c(-c3cnn(C4CCNCC4)c3)coc12)c1c(Cl)c(F)cc(OC2CCNCC2)c1Cl (stereo not drawn) [Example 158, 7-{1-[2,6-Dichloro-3-fluoro-5-(piperidin-4-yloxy)phenyl]ethoxy}-3-[1-(piperidin-4-yl)-1H-pyrazol-4-yl]furo[3,2-c]pyridin-6-amine]	> 6.30	> 6.30
C[C@@H](Oc1c(N)ncc2c(C3=CCN(C(=O)Nc4ccccc4F)CC3)coc12)c1c(Cl)ccc(F)c1Cl [Example 150, 4-{6-Amino-7-[(1R)-1-(2,6-dichloro-3-fluorophenyl)ethoxy]furo[3,2-c]pyridin-3-yl}-N-(2-fluorophenyl)-3,6-dihydropyridine-1(2H)-carboxamide]	5.30 to 6.30	5.30 to 6.30
C[C@@H](Oc1c(N)ncc2c(-c3csc(C=O)c3)coc12)c1c(Cl)ccc(F)c1Cl [Example 302, 4-{6-Amino-7-[(R)-1-(2,6-dichloro-3-fluorophenyl)ethoxy]furo[3,2-c]pyridin-3-yl}thiophene-2-carbaldehyde]	5.30 to 6.30	5.30 to 6.30
CC(Oc1c(N)ncc2c(-c3cnn(C4CCNCC4)c3)coc12)c1cccnc1 (stereo not drawn) [Example 398, 3-(1-Piperidin-4-yl-1H-pyrazol-4-yl)-7-(1-pyridin-3-ylethoxy)furo[3,2-c]pyridin-6-ylamine]	5.30 to 6.30	5.30 to 6.30
CC(C)[C@@H](O)C(=O)N1CC=C(c2coc3c(O[C@H](C)c4c(Cl)ccc(F)c4Cl)c(N)ncc23)CC1 [Example 268, (2R)-1-[4-{6-Amino-7-[(1R)-1-(2,6-dichloro-3-fluorophenyl)ethoxy]furo[3,2-c]pyridin-3-yl}-3,6-dihydropyridin-1(2H)-yl]-2-hydroxy-3-methylbutan-1-one]	5.30 to 6.30	5.30 to 6.30
C[C@@H](Oc1c(N)ncc2c(-c3ccnc(N4CCN(C)CC4)c3)coc12)c1c(Cl)ccc(F)c1Cl [Example 89, 7-[(R)-1-(2,6-Dichloro-3-fluorophenyl)ethoxy]-3-[2-(4-methylpiperazin-1-yl)pyridin-4-yl]-furo[3,2-c]pyridin-6-ylamine]	> 6.30	> 6.30
C[C@@H](Oc1c(N)ncc2c(C3=CCN(C(=O)C(C)(C)O)CC3)coc12)c1c(Cl)ccc(F)c1Cl [Example 228, 1-(4-{6-Amino-7-[(R)-1-(2,6-dichloro-3-fluorophenyl)ethoxy]-furo[3,2-c]pyridin-3-yl}-3,6-dihydro-2H-pyridin-1-yl)-2-hydroxy-2-methylpropan-β-one]	5.30 to 6.30	5.30 to 6.30
COC(=O)N1CCC(n2cc(-c3coc4c(O[C@H](C)c5c(Cl)ccc(F)c5Cl)c(N)ncc34)cn2)CC1 [Example 274, Methyl 4-(4-{6-Amino-7-[(1R)-1-(2,6-dichloro-3-fluorophenyl)ethoxy]furo[3,2-c]pyridin-3-yl}-1H-pyrazol-1-yl)piperidine-1-carboxylate]	5.30 to 6.30	5.30 to 6.30
C[C@@H](Oc1c(N)ncc2c(C3=CCN(CC#N)CC3)coc12)c1c(Cl)ccc(F)c1Cl [Example 321, (4-{6-Amino-7-[(R)-1-(2,6-dichloro-3-fluorophenyl)ethoxy]furo[3,2-c]pyridin-3-yl}-3,6-dihydro-2H-pyridin-1-yl)acetonitrile]	5.30 to 6.30	> 6.30
C[C@@H](Oc1c(N)ncc2c(C3=CCN(C(=O)N4CCN(CC(F)(F)F)CC4)CC3)coc12)c1c(Cl)ccc(F)c1Cl [Example 28, (4-{6-Amino-7-[(R)-1-(2,6-dichloro-3-fluorophenyl)-ethoxy]-furo[3,2-c]pyridin-3-yl}-3,6-dihydro-2H-pyridin-1-yl)-[4-(2,2,2-trifluoroethyl)-piperazin-1-yl]-methanone]	5.30 to 6.30	5.30 to 6.30
C[C@@H](O)C(=O)N1CC=C(c2coc3c(O[C@H](C)c4c(Cl)ccc(F)c4Cl)c(N)ncc23)CC1 [Example 226, (R)-1-(4-{6-Amino-7-[(R)-1-(2,6-dichloro-3-fluorophenyl)ethoxy]-furo[3,2-c]pyridin-3-yl}-3,6-dihydro-2H-pyridin-1-yl)-2-hydroxypropan-1-one]	> 6.30	> 6.30
C[C@@H](Oc1c(N)ncc2c(-c3cccc(C(=O)O)c3)coc12)c1c(Cl)ccc(F)c1Cl [Example 80, 3-{6-Amino-7-[(R)-1-(2,6-dichloro-3-fluorophenyl)ethoxy]-furo[3,2-c]pyridin-3-yl}benzoic acid]	5.30 to 6.30	5.30 to 6.30
C[C@@H](Oc1c(N)ncc2c(-c3cnn(C4CCN(C=O)CC4)c3)coc12)c1c(Cl)ccc(F)c1Cl [Example 277, 4-(4-{6-Amino-7-[(1R)-1-(2,6-dichloro-3-fluorophenyl)ethoxy]furo[3,2-c]pyridin-3-yl}-1H-pyrazol-1-yl)piperidine-1-carbaldehyde]	5.30 to 6.30	5.30 to 6.30
C[C@@H](Oc1c(N)ncc2c(-c3cnn(C4CCNCC4)c3)c(C#CCCO)oc12)c1c(Cl)ccc(F)c1Cl [Example 172, 4-[6-Amino-7-[(R)-1-(2,6-dichloro-3-fluorophenyl)ethoxy]-3-(1-piperidin-4-yl-1H-pyrazol-4-yl)-furo[3,2-c]pyridin-2-yl]-but-3-yn-1-ol]	> 6.30	> 6.30
C[C@@H](Oc1c(N)ncc2c(C3=CCN(C(=O)Oc4ccccc4)CC3)coc12)c1c(Cl)ccc(F)c1Cl [Example 55, 4-{6-Amino-7-[(R)-1-(2,6-dichloro-3-fluorophenyl)-ethoxy]-furo[3,2-c]pyridin-3-yl}-3,6-dihydro-2H-pyridine-1-carboxylic acid phenyl ester]	5.30 to 6.30	> 6.30
C[C@@H](Oc1c(N)ncc2c(-c3ccc([N+](=O)[O-])nc3)coc12)c1c(Cl)ccc(F)c1Cl [Example 119, 7-[(R)-1-(2,6-Dichloro-3-fluorophenyl)ethoxy]-3-(6-nitropyridin-3-yl)furo[3,2-c]pyridin-6-ylamine]	4.70 to 5.30	5.30 to 6.30
CCNC(=O)c1cc(-c2coc3c(O[C@H](C)c4c(Cl)ccc(F)c4Cl)c(N)ncc23)cs1 [Example 314, 4-{6-Amino-7-[(R)-1-(2,6-dichloro-3-fluorophenyl)ethoxy]furo[3,2-c]pyridin-3-yl}-thiophene-2-carboxylic acid Ethylamide]	5.30 to 6.30	5.30 to 6.30
C[C@@H](Oc1c(N)ncc2c(-c3ccc(CO)cc3)coc12)c1c(Cl)ccc(F)c1Cl [Example 64, (4-{6-Amino-7-[(R)-1-(2,6-dichloro-3-fluorophenyl)ethoxy]-furo[3,2-c]pyridin-3-yl}-phenyl)methanol]	5.30 to 6.30	5.30 to 6.30
C[C@@H](Oc1c(N)ncc2c(-c3csc(CN4CCN(C)CC4)c3)coc12)c1c(Cl)ccc(F)c1Cl [Example 304, 7-[(R)-1-(2,6-Dichloro-3-fluorophenyl)ethoxy]-3-[5-(4-methyl-piperazin-1-ylmethyl)thiophen-3-yl]-furo[3,2-c]pyridin-6-ylamine]	> 6.30	> 6.30
CN/C(=N/C#N)N1CC=C(c2coc3c(O[C@H](C)c4c(Cl)ccc(F)c4Cl)c(N)ncc23)CC1 [Example 198, 4-{6-Amino-7-[(R)-1-(2,6-dichloro-3-fluorophenyl)ethoxy]-furo[3,2-c]pyridin-3-yl}-N-cyano-N′-methyl-3,6-dihydro-2H-pyridine-1-carboxamidine]	5.30 to 6.30	5.30 to 6.30
CC(Oc1c(N)ncc2c(-c3cnn(C4CCNCC4)c3)coc12)c1cccc(C#N)c1 (stereo not drawn) [Example 393, 3-{1-[6-Amino-3-(1-piperidin-4-yl-1H-pyrazol-4-yl)furo[3,2-c]pyridin-7-yloxy]ethyl}benzonitrile]	5.30 to 6.30	> 6.30
C[C@@H](Oc1c(N)ncc2c(C3=CCN(C4CNC4)CC3)coc12)c1c(Cl)ccc(F)c1Cl [Example 322, 3-(1-Azetidin-3-yl-1,2,3,6-tetrahydropyridin-4-yl)-7-[(R)-1-(2,6-dichloro-3-fluorophenyl)ethoxy]furo[3,2-c]pyridin-6-ylamine]	> 6.30	> 6.30
CC(Cc1ccccc1F)Oc1c(N)ncc2c(-c3cnn(C4CCNCC4)c3)coc12 (stereo not drawn) [Example 423, 7-[2-(2-Fluorophenyl)-1-methylethoxy]-3-(1-piperidin-4-yl-1H-pyrazol-4-yl)furo[3,2-c]pyridin-6-ylamine]	5.30 to 6.30	> 6.30
COc1cc(OC)cc(-c2coc3c(O[C@H](C)c4c(Cl)ccc(F)c4Cl)c(N)ncc23)c1 [Example 81, 7-[(R)-1-(2,6-Dichloro-3-fluorophenyl)ethoxy]-3-(3,5-dimethoxyphenyl)furo[3,2-c]pyridin-6-ylamine]	5.30 to 6.30	5.30 to 6.30
C[C@@H](Oc1c(N)ncc2c(C3=CCN(C(=O)c4cnn[nH]4)CC3)coc12)c1c(Cl)ccc(F)c1Cl [Example 230, (4-{6-Amino-7-[(R)-1-(2,6-dichloro-3-fluorophenyl)ethoxy]-furo[3,2-c]pyridin-3-yl}-3,6-dihydro-2H-pyridin-1-yl)-(3H-[1,2,3]triazol-4-yl)-methanone]	5.30 to 6.30	5.30 to 6.30
CC(Oc1c(N)ncc2c(-c3cnn(C4CCNCC4)c3)coc12)c1c(Cl)c(F)cc(OCCCN)c1Cl (stereo not drawn) [Example 155, 7-{1-[3-(3-Aminopropoxy)-2,6-dichloro-5-fluorophenyl]ethoxy}-3-[1-(piperidin-4-yl)-1H-pyrazol-4-yl]furo[3,2-c]pyridin-6-amine]	> 6.30	> 6.30
